The numbers were not newly measured in the CATMoS acute toxicity set (Mansouri et al. 2021), which cites them from elsewhere.

The structures appear in SMILES notation. Where “and” joins values, the source holds several entries; their conditions need not be identical. Equal values may be shown once.

A short description of the series: rat acute oral toxicity. The following applies: in vivo.
Consider `O=C(O)Cc1c(-c2ccccc2)c(-c2ccccc2)nn1-c1ccccc1`, for which the LD50 (commonly the dose at which mortality reaches 50%) is 13 mg/kg. In the case of `CC1(COCC2(C)CO2)CO1` (configuration not stated), the LD50 is 1680 mg/kg.

`CCNc1nc(NC(C)(C)C)nc(SC)n1`: the median lethal dose (LD50) was 2040 mg/kg. Regarding `COP(=O)(OC)Sc1ccc(Cl)cc1`, the 50% lethal dose (LD50) is 100 mg/kg.

For the compound `CC(CN(C)C)CN1c2ccccc2Sc2ccccc21` (configuration not stated), the LD50 was 210 mg/kg.

Turning to `CCOP(=S)(OCC)SC(CCl)N1C(=O)c2ccccc2C1=O` (configuration not stated), the LD50 was 5 mg/kg. With `CN1C(=O)CCc2cc(C(=O)CCN3CCN(c4ccccc4)CC3)ccc21`, the LD50 is 500 mg/kg. On to `C[N+]1(CC[N+]2(C)CC3C4C=CC(CC4)C3C2)CCCC1` (configuration not stated), for which the LD50 is 1810 mg/kg. With `CC1(C)Cc2cccc(OC(=O)NCSc3ccc(C(C)(C)C)cc3)c2O1`, the LD50 was 125 mg/kg. Take `C=C(CO)C(=O)OCC`: the LD50 is 620 mg/kg. Regarding `OCCCS`, the LD50 is 116 mg/kg. Turning to `CCC(C)NCC(O)c1ccc(N)cc1` (configuration not stated), the LD50 was 650 mg/kg. `COC(=O)COc1ccc2ccccc2c1`: the LD50 was 2800 mg/kg. As for `C=CCN(CC=C)CC=C`, the LD50 is 1030 mg/kg. Turning to `c1ccc(N2CCNCC2)cc1`, the LD50 is 210 mg/kg. As to `COP(=S)(OC)SSP(=S)(OC)OC`, the 50% lethal dose (LD50) is 10000 mg/kg. Consider `BrC1(Br)C2CCC1CC2`, for which the LD50 was 210 mg/kg. As for `COCCO[Si](CCCl)(OCCOC)OCCOC`, the LD50 was 878 mg/kg.

Regarding `CC(C)CC(CC(C)C)OCCOCCO`, the LD50 was 8680 mg/kg. Take `CCCCC`: the LD50 was 400 mg/kg. On to `C[N+]1(C)CCc2cc(Cl)ccc21`, for which the median lethal dose (LD50) is 447 mg/kg.

Take `CO[C@@]1(NC(=O)CSCC#N)C(=O)N2C(C(=O)O)=C(CSc3nnnn3C)CS[C@@H]21`: the median lethal dose (LD50) was 3200 mg/kg. Regarding `OC1(c2ccccc2)c2ccccc2C2=NCCN21` (configuration not stated), the LD50 was 300 mg/kg.

Consider `CCNP(=S)(OC)Oc1cc(Cl)c(Cl)cc1Cl` (configuration not stated), for which the median lethal dose (LD50) is 450 mg/kg. As to `FC(F)(F)c1nc2c(Br)c(Cl)c(Cl)cc2[nH]1`, the LD50 is 2.21 mg/kg. In the case of `COc1ccc(NC(=O)N(C)C)cc1Cl`, the LD50 is 1600 mg/kg. `O=[N+]([O-])c1cc(Br)cc2[nH]c(C(F)(F)F)nc12`: the 50% lethal dose (LD50) was 1.23 mg/kg. With `CC(CN(C)C)C(C)(O)Cc1ccc(Cl)cc1` (configuration not stated), the median lethal dose (LD50) was 802 mg/kg. As for `CCCCCCCC(=O)Oc1c(I)cc(C#N)cc1I`, the LD50 was 190 mg/kg. For `C#CCOC(C)=O`, the 50% lethal dose (LD50) is 250 mg/kg. Take `CC(C)(CO)NCC(O)c1ccccc1` (configuration not stated): the median lethal dose (LD50) was 2080 mg/kg. Consider `O=[N+]([O-])c1cc2nc(C(F)(F)F)[nH]c2cc1Cl`, for which the 50% lethal dose (LD50) is 5.55 mg/kg. In the case of `COC(=O)C(C)Oc1ccc(Oc2ncc(C(F)(F)F)cc2Cl)cc1` (configuration not stated), the LD50 was 393 mg/kg. Take `CCCCCCCCCCCC(=O)OCC(O)CO` (configuration not stated): the 50% lethal dose (LD50) is 52900 mg/kg. For the compound `CCOc1ccc(N2C(=O)C=CC2=O)cc1`, the 50% lethal dose (LD50) is 630 mg/kg.

With `CC(=O)OCC#N`, the LD50 was 32 mg/kg. `NS(=O)(=O)c1cc2c(cc1Cl)NC(CC1CCCC1)NS2(=O)=O` (configuration not stated): the LD50 was 1000 mg/kg.

For the compound `O=C(O)[C@@H]1CS[C@H](c2ccccc2O)N1C(=O)CCS`, the median lethal dose (LD50) was 8290 mg/kg. Regarding `CCOP(=S)(OCC)SCSCc1ccccc1`, the LD50 is 6 mg/kg.

`CN(C)N(C)N=O`: the LD50 is 95 mg/kg. For the compound `C[C@H](CN1CCOCC1)C(C(=O)N1CCCC1)(c1ccccc1)c1ccccc1`, the 50% lethal dose (LD50) is 71.8 mg/kg.

Consider `CCN(CC)C(C)=O`, for which the 50% lethal dose (LD50) is 1500 mg/kg. As to `CCOC(C)CO` (configuration not stated), the LD50 was 7110 mg/kg. Take `CCCC1C2C=CC(C2)C1C=O` (configuration not stated): the 50% lethal dose (LD50) is 4600 mg/kg. Take `CCc1ncc(C)nc1C`: the median lethal dose (LD50) is 456 mg/kg. With `OCCOCCN(CCOCCO)CCN(CCOCCO)CCOCCO`, the 50% lethal dose (LD50) is 9900 mg/kg. With `CCC1(CCC(C)C)C(=O)N=C(O)NC1=O` (configuration not stated), the LD50 was 275 mg/kg. On to `CNc1ccc(NCCO)c2c1C(=O)c1ccccc1C2=O`, for which the 50% lethal dose (LD50) is 1340 mg/kg.

For `CC(Oc1cccc2ccccc12)C(N)=NO` (configuration not stated), the 50% lethal dose (LD50) is 90 mg/kg.

As to `C=C(C)c1ccc(C(C)(C)N=C=O)cc1`, the LD50 is 4400 mg/kg.

As for `Cc1cccc(C(C)C)c1`, the LD50 was 2970 mg/kg. Turning to `NS(=O)(=O)c1ccccc1`, the LD50 is 991 mg/kg. For `[O-][n+]1cc[n+]([O-])c2ccccc21`, the 50% lethal dose (LD50) is 500 mg/kg.

Consider `c1cc2ccc3cccc4ccc(c1)c2c34`, for which the LD50 was 2700 mg/kg. For the compound `N#CCCC1CN2CCc3cc4c(cc3C2CC1=O)OCO4` (configuration not stated), the LD50 was 1410 mg/kg. As to `CCOc1ccc(N(C)C(=O)C(C(C)O)N(C)C)cc1` (configuration not stated), the LD50 is 1350 mg/kg. With `Cn1c2c(c(=O)n1-c1ccccc1)CCCC2`, the LD50 is 1500 mg/kg. With `O=C1CCc2cccc3c2N1CC3`, the LD50 is 321 mg/kg.

Regarding `CCCCCN(CCCCC)N=O`, the median lethal dose (LD50) is 1750 mg/kg. For `Cc1nc2ccccc2c(=O)n1-c1ccccc1C(=O)O`, the 50% lethal dose (LD50) was 1550 mg/kg. In the case of `COP(=O)(OC)Oc1ccc(S(C)(=O)=O)c(C)c1`, the 50% lethal dose (LD50) was 30 mg/kg.

On to `O=C(O)CCCNS(=O)(=O)c1cccc(C(F)(F)F)c1`, for which the 50% lethal dose (LD50) was 13000 mg/kg.

With `CN(c1ccc(Cl)cc1)S(=O)(=O)c1ccc(Cl)cc1`, the LD50 is 2500 mg/kg. Regarding `CCCCCCCCCC=O`, the median lethal dose (LD50) was 3730 mg/kg. For the compound `O=C(O)c1cc(C(=O)O)cc(S(=O)(=O)O)c1`, the median lethal dose (LD50) is 2600 mg/kg and 6450 mg/kg. Take `CN(C)C(=N)NC#N`: the LD50 was 3840 mg/kg. For the compound `CCOC(=O)C1=C(C)NC(C)=C(C(=O)OC)C1c1cccc(Cl)c1Cl` (configuration not stated), the LD50 was 1050 mg/kg. `CCC1C(c2ccccc2)=CCC(C(=O)O)C1C` (configuration not stated): the LD50 was 2350 mg/kg. Take `CCN(CC)CCOC(=O)CC(O)(c1ccccc1)c1ccccc1`: the median lethal dose (LD50) is 2310 mg/kg.

As to `SCCS`, the LD50 was 120 mg/kg. With `c1ccc(Nc2cccc3ccccc23)cc1`, the LD50 is 1620 mg/kg. Regarding `O=S(=O)(Cl)CCCl`, the LD50 was 240 mg/kg. Turning to `C[C@H](CS)C(=O)N1CCC[C@H]1C(=O)O`, the LD50 was 4240 mg/kg. Take `NNCCc1ccccc1`: the LD50 was 210 mg/kg. For the compound `CC(C)N1C(=O)c2ccccc2NS1(=O)=O`, the median lethal dose (LD50) is 1100 mg/kg. Consider `CSC(=N)N`, for which the LD50 is 800 mg/kg. Consider `CSC(C)(C)C=NOC(=O)N(C)SN1CCOCC1`, for which the LD50 is 1.2 mg/kg. `CC(C)(C)c1ccc(OP2OCC3(CO2)COP(Oc2ccc(C(C)(C)C)cc2C(C)(C)C)OC3)c(C(C)(C)C)c1` (configuration not stated): the 50% lethal dose (LD50) is 5580 mg/kg. In the case of `CC(CCl)N(C)C` (configuration not stated), the LD50 is 166 mg/kg.

Take `O=C(Cc1ccccc1)OCCc1ccccc1`: the median lethal dose (LD50) is 15000 mg/kg. Consider `C[N+]1(CCF)[C@@H]2CC[C@H]1C[C@@H](OC(=O)C(O)(c1ccccc1)c1ccccc1)C2` (single isomer, unassigned), for which the LD50 is 740 mg/kg.

Regarding `FC(F)(F)C(Cl)Br` (configuration not stated), the LD50 was 5680 mg/kg. With `CC(N)CN` (configuration not stated), the 50% lethal dose (LD50) was 2230 mg/kg. On to `C=CCOCCO`, for which the median lethal dose (LD50) is 3050 mg/kg. For the compound `CNC(=O)ON=CC1(C)SC(C)C(C)S1` (configuration not stated), the LD50 is 2.5 mg/kg. Consider `COCC(O)Cn1ccnc1[N+](=O)[O-]` (configuration not stated), for which the LD50 was 2130 mg/kg.

For the compound `COC(CN1CCN(CC(O)C(OC)c2ccccc2)CC1)c1ccccc1` (configuration not stated), the 50% lethal dose (LD50) is 435 mg/kg. With `CCOC(=O)CN=C=O`, the LD50 is 1130 mg/kg. In the case of `CS(=O)(=O)N(Cc1cccnc1)c1ccc(F)cc1F`, the LD50 was 1060 mg/kg.

Take `CN(C)C=C1C(=O)N(c2ccccc2)N=C1c1ccccc1`: the LD50 is 890 mg/kg.

For `CC1=CCC(C(C)C)=CC1`, the LD50 was 3650 mg/kg. As to `CCCCC(CC)CNc1ccccc1` (configuration not stated), the 50% lethal dose (LD50) is 2410 mg/kg.
